Laboratory results as given in patent US20220264887A1, “Foam Formulations For Decontamination Of Surfaces With Minimum Wastewater” (The Trustees of Columbia University in the City of New York, priority 2020, published 2022).

Tests used:
Type in all cases: physicochemical
[1] = Surface tension / CMC of surfactants and mixtures by tensiometer, with and without hypochlorite; details: for change of CMC value in the presence of hypochlorite: presence vs absence of hypochlorite; for No hypochlorite (CMC): after 24 hours of preparation
Description: Thus, the foam formulations were stable in terms of surfactants retaining their surface activity for the foam-deployment-on-surface application.
The surface tension values for pure surfactants and their mixtures—formulations—were determined in the presence and absence of hypochlorite (Table 1). […] The surface tension values for CAPB, taurate, SDS, and surfactin determined after 24 hours of preparation of these solutions, and in the absence and presence of hypochlorite are given in Table 1 and FIGS. 1, 2, and 3; Taurate was used for fundamental reasons and was not considered in preparing the final formulation(s). (The surface tension values were determined using a tensiometer.)
(§1) The CMC values for these surfactants in the absence of hypochlorite, were as reported in the literature. […] A chlorine strip was used to determine hypochlorite degradation.

[2] = Hypochlorite degradation in formulation by chlorine strip; details: after 24 hrs
From the text: as §1

[3] = Raman microscopy of hypochlorite degradation (ClO-/ClO4- peak ratio); details: freshly prepared 1% solution in water
From the text: To monitor degradation of hypochlorite in the formulations (liquids), foams, and deposit residues, one can use Raman microscopy. Raman spectra were acquired using a Horiba Aramis confocal Raman microscope with a 10× objective (numerical aperture 0.25), a 1200 grooves/mm diffraction grating, and a 17-mW 633-nm HeNe laser without attenuation. The monochromator was calibrated before each set of measurements using the Si peak at 520.7 cm-1 of a Si wafer reference sample.
The degradation of hypochlorite ion (ClO—) was assessed by the intensity ratio of the main Raman peaks of ClO— at 715 cm-1 and perchlorate ClO4- at 937 cm-1 (FIG. 8). Perchlorate is a product of the final degradation of hypochlorite.

[4] = presence of hypochlorite 0.7-1 wt. % CL

| change of CMC value in the presence of hypochlorite [1] | Min surface tension ([1]; absence of hypochlorite) | No hypochlorite (CMC) ([1]; absence of hypochlorite) | 0.7-1% hypochlorite (CMC) [1, 4] | Min surface tension [1, 4] | Compound | decrease of hypochlorite concentration in the formulation [2] | ClO-/ClO4- Raman peak ratio [3] | fraction of hypochlorite already degraded ([3]; from peak ratio) |
| --- | --- | --- | --- | --- | --- | --- | --- | --- |
| increased slightly | – | – | – | – | NCCS(=O)(=O)O [Taurate] | – | – | – |
| – | – | – | – | – | [Na+].[O-]Cl [hypochlorite, sodium hypochlorite] | 30-40% | about 2 | about 30% |
| increased slightly | 28 mN/m | 2.4 g/L | 2.6 g/L | 28 mN/m | CCCCCCCCCCCCOS(=O)(=O)[O-].[Na+] [SDS, Sodium dodecyl sulfate] | – | – | – |
| a small decrease or no change | 28 mN/m | 0.3 g/L | 0.31 g/L | 28 mN/m | cocamidopropyl betaine [CAPB] | – | – | – |
